Measurements reported in patent publication US7414173B1, “Isolated nucleic acid molecules encoding orally active androctonus amoreuxi pesticidal biopeptides” (E.I. du Pont de Nemours and Company, priority 2002, dated 2008).

Key:
[1] = test system: embryonic neuronal cultures of the American cockroach Periplaneta americana; assay: Fluorescence imaging ratiometric assay; format: cell-based; conditions: Fluo-4 AM loaded neuronal cells
Source text: Embryonic neuronal cultures of the American cockroach Periplaneta americana were established following the method of Beadle and Lees (See Beadle D. J. and Lees G., Chapter 5 in Cell Culture Approaches to Invertebrate Neuroscience, Beadle, D. J., Lees, G. and Kater, S. B. (eds.) Academic Press, New York 1988) with minor modification. Briefly, 24-day old oothecae were collected, surface-sterilized and cut open one third below the dorsal midline. The heads were then removed and placed in Schneider's Drosophila medium. Using fine forceps 32 brains were individually removed and placed in a small glass vial containing 790 μl of ‘5+4’ medium. […]
Cells were rinsed in standard physiological saline having the following composition (mM): NaCl 190; CaCl2 9; KCl 3.1; probenicid 1; Tris buffer 10; pH 7.2. […] Individual wells from the 96-well plate were sequentially excited with light at 495 nm and the emitted fluorescence at 530 nm detected using a Hamamatsu ORCA ER digital camera.
Acquisition control, image processing and image analysis were conducted using Universal Imaging Corporation's MetaMorph™ imaging software. […] Individual cells were separated and identified based on meeting designated morphometric criteria for total size and shape as previously determined experimentally for this cell type. […]

[2] = test system: corn plant hopper Perigrinus maidis; assay: Screening of Androctonus amoreuxi venom fractions for Homopteran activity; format: in vivo; conditions: HPLC fractions of venom
Description: This assay can be used for a variety of homopterans including, but not limited to, Myzus persicae and Perigrinus maidis. The assay involves trapping the sample between two layers of maximally stretched parafilm which act as a sachet on top of a small vessel containing the insect of choice.
The assay was prepared as follows: 1 cm diameter polystyrene tubing was cut into 15 mm lengths. One end of the tube was then capped with a fine mesh screen. Five insects were then added to the chamber after which the first layer of parafilm was stretched over the remaining open end. 25 μl of sample (polypeptide in a 5% sucrose solution containing McCormick green food coloring) was then placed on top of the stretched parafilm. A second layer of parafilm was then stretched by hand and placed over the sample. […] The assay tubes were monitored for insect reproduction and death on a 24 hour basis and compared to a 5% sucrose control.
Initial screening of five minute fractions of the venom from Androctonus amoreuxi indicated activity against the corn plant hopper Perigrinus maidis. […] Sufficient quantities of this purified protein were collected to allow confirmation of activity and to initiate protein sequencing by Edmund degradation as described in Example 2. The mature sequence was determined to be that indicated in SEQ ID NO:20. […]

[3] = test system: Myzus persicae (Green Peach Aphid); assay: Aphid bioassay on transgenic Arabidopsis thaliana events; format: in vivo; conditions: 35S promoter, versus controls
Source text: cDNAs encoding potential sodium channel neurotoxins were identified from sequence data derived from a cDNA library of Centruroides vittatus telsons. […] Full length genes were PCR amplified with oligonucleotide primers introducing restriction enzyme sites at the 5′ and 3′ ends of the gene. The PCR products were TOPO-cloned into pCR2.1 (Invitrogen Co.) and the sequence was confirmed. The resulting constructs were then cloned into a binary vector between the Cauliflower mosaic virus 35S promoter and the NOS termination signal. The binary vector also contained a selection marker cassette including the Cauliflower mosaic 35S promoter, the BAR gene, and NOS terminator.
Binary constructs were electroporated into Agrobacterium tumefaciens strain C58. Transformed Agrobacterium cultures were grown in YM media for 2 days at 28° C. to an OD600 of approximately 1.0. Cells were pelleted by centrifugation and resuspended at the original culture volume in 5% sucrose with 0.05% Silwet L-77. The Agrobacterium slurry was sprinkled onto the inflorescences of flowering Arabidopsis thaliana (Landberg) plants using a 10-25 ml pipette. […]
Bioassays were performed on individual transformation events enclosed within plastic tubes with a fine mesh screen at the top to confine the aphids. […] Plants were scored for total number of adult aphids and nymphs at various intervals post infestation.

Molecule	changes in Fluo-4 fluorescence (intracellular free calcium) [1]	activity against the corn plant hopper Perigrinus maidis (Homopteran activity) [2]	aphid resistance (total number of adult aphids and nymphs) [3]
Aam1 (ADVPGNYPLDSSDNTYLCAPLGDNPDCIKICQKHGVDYGYCYAFQCWCEFLKDENVKV)	changes in fluorescence characteristic of a sodium channel agonist	Homopteran activity was then found to be associated	
Ts7: polypeptide set forth in SEQ ID NO:22 and 24, identified from a Centruroides vittatus telsons cDNA library (protein) chain 1: MKFFLIVSLAIMSCFMEMKEVYAGTKGNFPVDFQGIFYECIVYNRCERDCKLHGSSYGYCYAGVCYCEGLADEDKYFLGM chain 2: GTKGNFPVDFQGIFYECIVYNRCERDCKLHGSSYGYCYAGVCYCEGLADEDKYFLGM			greater degree of aphid resistance than controls
